Measured values as given in patent US20260327263A1, “Anti-Bacterial Peptides” (priority 2023, published 2026).
≈ marks a conversion by molar mass, not a printed value. Where a SMILES comes first, the peptide text is derived from it. Where no end group is shown, it is not given here. [ ]: non-standard residue; d: D form. 2Nal = N[C@@H](Cc1ccc2ccccc2c1)C(=O)O; d2Nal = N[C@H](Cc1ccc2ccccc2c1)C(=O)O

What was measured:
bacteria = test: Comparison of wild-type peptide E1A to V8LQ19L (Table 14)
Source text: Active peptide sequences based on ENO3 exerting significant bactericidal antibiofilm properties, and relevant to chronic wound healing are previously disclosed. The previously disclosed antimicrobial peptides (AMPs) are longer (>22-residues) in length, which would be more costly in production.

[1] = system: Staphylococcus aureus (SA); test: Broth microdilution anti-bacterial assay (CLSI), Staphylococcus aureus; type: cell-based; conditions: SA; for MIC: overnight, 37° C., ≥99% inhibition; for MBC: ≥99% killing
Method: (§1) To evaluate their anti-bacterial potency, broth microdilution method as per the CLSI guidelines 1 was used. […] The anti-bacterial potency of the tested agents is quantified using minimum inhibitory concentration (MIC) and minimum bactericidal concentration (MBC). […] To obtain the MBC data, 1X, 2X and 4× MIC of the peptide variants were plated to obtain the number of viable colonies compared to the original inoculum.
(§2) Pseudomonas aeruginosa (ATCC 14213, PA), and methicillin resistant Staphylococcus aureus (BAA1717-USA 300, SA) were obtained from The American Type Culture Collection (ATCC).
(§3) Examination of the potency of modified short peptides against PA and SA strains was performed by using the broth microdilution protocol from the Clinical and Laboratory Standards Institute (CLSI) guidelines (CLSI 2012) as described. Briefly, five freshly plated bacteria colonies were grown in cation adjusted MH2 broth (BD Biosciences) in a shaker incubator at 37° C., 220 RPM. Cells were grown to an optical density (OD600) of ~0.2 measured using a Microplate Spectrophotometer (Molecular Devices Spectra Max Plus). 100 μL of microbial culture containing ~5×10^5 CFU/mL of bacteria in the respective broths were introduced into each well containing 100 μL of peptides and incubated overnight at 37° C. Next, to check the bactericidal effects, 100 μL from each well was transferred and spread on sterile MH2 agar plates. The plates were incubated overnight at 37° C. and the number of colonies forming units (CFU) were calculated the following day. Readings of bacteria grown in media without any treatments were normalized to 100% as media control. For the mixed infection study, three freshly plated bacteria colonies each from PA, SA and ST plates were grown together in cation adjusted MH2 broth and proceeded as described above.

[2] = system: Pseudomonas aeruginosa (PA); test: Broth microdilution anti-bacterial assay (CLSI), Pseudomonas aeruginosa; type: cell-based, Pseudomonas aeruginosa (ATCC 14213); conditions: for MIC / MBC: PA; for MIC: overnight, 37° C., ≥99% inhibition; for MBC: ≥99% killing
Method: as §1, §2, §3

[3] = system: Pseudomonas aeruginosa (PA); test: Combination of peptide with antibiotics against PA; type: cell-based
Source text: In view of the results above, the peptide variants as described herein show synergistic anti-bacterial effects when used in combination with antibiotics.
In some examples, the methods described herein further comprises administering an antibiotic agent to the subject.

[4] = system: Pseudomonas aeruginosa (PA); test: Time-kill assay, Pseudomonas aeruginosa; type: cell-based
Method: (§4) The bactericidal abilities of the variant peptides are not only effective, but also fast-acting. […] The killing kinetics are detailed in Table 11 below.
(§5) Pseudomonas aeruginosa (PA) and Staphylococcus aureus (SA) strains were grown as per CLSI guidelines. AMPs were added to the bacterial cultures at their 1X MBC concentrations. Upon treatment, the bacterial cultures were enumerated for viable counts immediately within 1 min, 5 min, 15 min, 30 min and 60 min post-treatments.

human keratinocytes = test: 2D scratch assay, keratinocyte migration; type: cell-based; conditions: 48 h; E1AM2 3.125-12.5 μM, Q19L 3.125-6.25 μM
Method: Wound healing is directly associated with the migration speed of keratinocytes. The migration speed of human keratinocytes in presence of E1AM2, V8L (SEQ ID NO: 19), and Q19L variants is tested in comparison with pexiganan (SEQ ID NO: 54). Migration speed of human keratinocytes assessed in a 2D scratch assay at D 0 and D 2 timepoints. Decrease in wound area over time was measured by applying an ImageJ plugin ‘Wound Healing Size Tool’ on bright-field images. The change in wound area over the course of 48 hours was used as a measure of the migration speed of keratinocytes. Each value is the mean±SD (n=3). The p-value was calculated using ANOVA for multiple comparisons (Dunnett's multiple comparisons test). **** p<0.0001. *** p<0.001. ** p <0.01. * p<0.05. […] Both peptides healed wound faster within their respective MIC and MBC concentrations. […] SEQ ID NO: 27=Q19L; SEQ ID NO: 2=E1AM2; SEQ ID NO: 19=V8L.
(§6) Wound closure was compared with the untreated samples (circle, red highlight). For improved clarity, error bars have been omitted from this representation. […] Each value is the mean±SD (n=3). Statistical significance was assessed using ANOVA for multiple comparisons (Dunnett's multiple comparisons test). **** p<0.0001, *** p<0.001, ** p<0.01, *p<0.05, ns denotes nonsignificance, p >0.05.
Wound areas of the human keratinocyte culture were assessed in presence of peptides in a 2D scratch assay at the 0 hour, and 48-hour time points by applying an ImageJ plugin, ‘Wound Healing Size Tool’ on brightfield images. Quantification of wound width was calculated by obtaining the averaged Euclidean distance between each paired pixel at the lateral wound edges. The change in wound area over the course of 48 hours was used as a measure of the migration speed of keratinocytes.
Using the inverted BioTek Lionheart LX Automated Microscope, brightfield images were obtained at 4× magnification to observe the wound area at timepoints 0 (before treatment) and 48 hours-post treatment. Microscopy settings were maintained as focus offset (781.3 μm), illumination (2), integration Time (21) with no gain. To cover the entire well, montage images of four rows by three columns were stitched together by enabling the “image stitching” function and images were saved in tiff-format.

[5] = system: Staphylococcus aureus (SA); test: Time-kill assay, Staphylococcus aureus; type: cell-based
Method: as §4, §5

[6] = system: human keratinocytes (HaCaT); test: Cell proliferation assay, HaCaT keratinocytes; type: cell-based; conditions: 24 h; up to highest tested concentrations (peptide); 3% (H2O2)
Method: as §6
CyQUANT™ Direct Cell Proliferation Assay (ThermoFisher Scientific, Catalogue) was performed as per manufacturer's instructions to determine the safety of the peptides to human keratinocytes. […] The fluorescence intensity and number of stained cells were determined using the LionHeart FX Automated Microscope (BioTek, VT, USA).

fibroblasts (HFF-1) = test: Cell proliferation assay, HFF-1 fibroblasts; type: cell-based; conditions: 24 h; up to highest tested concentrations (peptide); 3% (H2O2)
[7] = at 1X MBC, * indicates killing within seconds
[8] = with gentamicin and piperacillin

Molecule	MIC [1]	MBC [1]	MIC [2]	MBC [2]	MBC in combination with colistin [3]	MIC in combination with colistin [3]	further results
KVNQIGSVTESIQACKLAQSN [E1A, reference compound]							Cationicity (bacteria): Non-cationic (cannot disrupt; Mechanism of killing bacteria (bacteria): Unknown/non-membrane; Killing efficacy (in words) (bacteria; >99% inhibition or killing, even at 500 μM): Does not achieve >99%
CC(C)C[C@@H](NC(=O)[C@@H](C)NC(=O)[C@@H](CC(C)C)NC(=O)[C@@H](CCCCN)NC(=O)[C@@H](CC(C)C)NC(=O)[C@@H](C)NC(=O)[C@@H](CCCCN)NC(=O)[C@@H](CCCCN)NC(=O)[C@@H](CO)NC(=O)[C@@H](CC(C)C)NC(=O)[C@@H](CCCCN)NC(=O)[C@@H](CC(C)C)NC(=O)[C@@H](Cc1c[nH]c2ccccc12)NC(=O)[C@@H](CCCCN)NC(=O)[C@@H](CCCCN)NC(=O)[C@@H](CC(C)C)NC(=O)[C@@H](CC(C)C)NC(=O)[C@@H](CCCCN)NC(=O)[C@H](N)CCCCN)C(N)=O [E1AM2 D-V8L Q19L C-2-NH2] (H-[dK][dK][dL][dL][dK][dK][dW][dL][dK][dL][dS][dK][dK][dA][dL][dK][dL][dA][dL]-NH2)	1.56 µM (≈ 3.51 µg/mL)	1.56 µM (≈ 3.51 µg/mL)	1.56 µM (≈ 3.51 µg/mL)	1.56 µM (≈ 3.51 µg/mL)	reduced minimum bactericidal concentration (MBC)	reduced minimum inhibitory concentration (MIC)	
CC(C)C[C@H](NC(=O)[C@H](C)NC(=O)[C@H](CC(C)C)NC(=O)[C@H](CCCCN)NC(=O)[C@H](CC(C)C)NC(=O)[C@H](C)NC(=O)[C@H](CCCCN)NC(=O)[C@H](CCCCN)NC(=O)[C@H](CO)NC(=O)[C@H](CC(C)C)NC(=O)[C@H](CCCCN)NC(=O)[C@H](CC(C)C)NC(=O)[C@H](Cc1ccc2ccccc2c1)NC(=O)[C@H](CCCCN)NC(=O)[C@H](CCCCN)NC(=O)[C@H](CC(C)C)NC(=O)[C@H](CC(C)C)NC(=O)[C@H](CCCCN)NC(=O)[C@@H](N)CCCCN)C(N)=O [E1AM2 W72Nal V8L Q19L C-2-NH2] (H-KKLLKK[2Nal]LKLSKKALKLAL-NH2)	1.56 µM (≈ 3.53 µg/mL)	1.56 µM (≈ 3.53 µg/mL)	1.56 µM (≈ 3.53 µg/mL)	1.56 µM (≈ 3.53 µg/mL)	reduced minimum bactericidal concentration (MBC)	reduced minimum inhibitory concentration (MIC)	
KKLLKKWLKLSKKALKLAQSL-NH2 [V8L]	3.125 µM	3.125 µM	3.125 µM	3.125 µM			time to kill PA (in words) ([4]; 1X MBC): within minutes; Time kill PA, >99% killing [4, 7]: 1* min; migration speed of keratinocytes (human keratinocytes): maintained keratinocyte migration speed; time to kill SA (in words) ([5]; 1X MBC): within minutes; Time kill SA, >99% killing [5, 7]: >30 to 60 min; anti-bacterial activity (in words) ([2]; PA and SA): reduction in the minimum inhibitory concentration (MIC) and minimum bactericidal concentration (MBC) values
OO [H2O2, hydrogen peroxide, reference compound]							cytotoxicity to HaCaT [6]: significant cytotoxicity; cytotoxicity to HFF-1 (fibroblasts (HFF-1)): significant cytotoxicity
CC(C)C[C@@H](NC(=O)[C@@H](C)NC(=O)[C@@H](CC(C)C)NC(=O)[C@@H](CCCCN)NC(=O)[C@@H](CC(C)C)NC(=O)[C@@H](C)NC(=O)[C@@H](CCCCN)NC(=O)[C@@H](CCCCN)NC(=O)[C@@H](CO)NC(=O)[C@@H](CC(C)C)NC(=O)[C@@H](CCCCN)NC(=O)[C@@H](CC(C)C)NC(=O)[C@@H](Cc1ccc2ccccc2c1)NC(=O)[C@@H](CCCCN)NC(=O)[C@@H](CCCCN)NC(=O)[C@@H](CC(C)C)NC(=O)[C@@H](CC(C)C)NC(=O)[C@@H](CCCCN)NC(=O)[C@H](N)CCCCN)C(N)=O [E1AM2 D-W72Nal V8L Q19L C-2-NH2] (H-[dK][dK][dL][dL][dK][dK][d2Nal][dL][dK][dL][dS][dK][dK][dA][dL][dK][dL][dA][dL]-NH2)	1.56 µM (≈ 3.53 µg/mL)	1.56 µM (≈ 3.53 µg/mL)	1.56 µM (≈ 3.53 µg/mL)	1.56 µM (≈ 3.53 µg/mL)			MBC in combination with gentamicin and piperacillin [3, 8]: reduced minimum bactericidal concentration (MBC); MIC in combination with gentamicin and piperacillin [3, 8]: reduced minimum inhibitory concentration (MIC)
